In ChEMBL document CHEMBL1143899, “Aryl-indolyl maleimides as inhibitors of CaMKIIdelta. Part 3: Importance of the indole orientation” (Bioorg Med Chem Lett, 2008):

Tests used:
[1] = molecular target: T1, Calcium/calmodulin-dependent protein kinase type II subunit delta (Homo sapiens, UniProt Q13557); assay: Inhibition of CaMK2delta
[2] = molecular target: T1, Calcium/calmodulin-dependent protein kinase type II subunit delta; assay: Inhibition of CaMK2delta using freshly stock solution of compound
[3] = molecular target: T1, Calcium/calmodulin-dependent protein kinase type II subunit delta; assay: Inhibition of CaMK2delta using 3 weeks old stock solution of compound

T1 sequence (Q13557 whole entry): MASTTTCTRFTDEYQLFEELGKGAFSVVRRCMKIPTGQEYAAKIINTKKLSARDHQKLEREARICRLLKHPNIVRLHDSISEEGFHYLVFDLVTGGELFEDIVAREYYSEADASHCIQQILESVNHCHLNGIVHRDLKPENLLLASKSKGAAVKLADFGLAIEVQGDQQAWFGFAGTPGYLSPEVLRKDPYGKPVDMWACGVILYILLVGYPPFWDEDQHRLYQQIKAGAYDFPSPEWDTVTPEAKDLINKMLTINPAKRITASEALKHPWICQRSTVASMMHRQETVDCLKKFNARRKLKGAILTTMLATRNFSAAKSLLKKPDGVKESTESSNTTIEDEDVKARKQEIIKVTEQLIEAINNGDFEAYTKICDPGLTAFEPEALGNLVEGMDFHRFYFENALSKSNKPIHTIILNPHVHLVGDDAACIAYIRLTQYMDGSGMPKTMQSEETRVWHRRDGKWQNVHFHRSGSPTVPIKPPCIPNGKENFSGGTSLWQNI

| SMILES | IC50 [1] [nM] | IC50 [2] [nM] | IC50 [3] [nM] |
| --- | --- | --- | --- |
| CNCCc1cn(C2=C(c3c[nH]c4ccc(C(=O)N(C)C)cc34)C(=O)NC2=O)c2ccccc12 | 11800 |  |  |
| NCCc1cn(C2=C(c3c[nH]c4ccc(Cl)cc34)C(=O)NC2=O)c2ccccc12 | 10 |  |  |
| Cc1[nH]c2ccccc2c1C1=C(c2cn(CCCN)c3ccccc23)C(=O)NC1=O | 750 |  |  |
| CNCCc1cn(C2=C(c3c[nH]c4ccc(C(=O)NC)cc34)C(=O)NC2=O)c2ccccc12 | 280 |  |  |
| NCCCn1cc(C2=C(c3ccccc3)C(=O)NC2=O)c2ccccc21 |  | 350 | 230 |
| CN(C)CCc1cn(C2=C(c3c[nH]c4ccccc34)C(=O)NC2=O)c2ccccc12 | 560 |  |  |
| NCCCn1cc(C2=C(c3csc4ccccc34)C(=O)NC2=O)c2ccccc21 |  | 360 | < 39 |
| N#Cc1ccc2[nH]cc(C3=C(n4cc(CCN)c5ccccc54)C(=O)NC3=O)c2c1 | 46 |  |  |
| CN(C)Cc1cn(C2=C(c3c[nH]c4ccccc34)C(=O)NC2=O)c2ccccc12 | 2410 |  |  |
| NCCCn1cc(C2=C(c3c[nH]c4ccccc34)C(=O)NC2=O)c2ccccc21 | 380 |  |  |
| CNCCc1cn(C2=C(c3c[nH]c4ccc(C(N)=O)cc34)C(=O)NC2=O)c2ccccc12 | 190 |  |  |
| CNCCc1cn(C2=C(c3c[nH]c4ccc(C(=O)O)cc34)C(=O)NC2=O)c2ccccc12 | 380 |  |  |
| COc1ccc2[nH]cc(C3=C(n4cc(CCN)c5ccccc54)C(=O)NC3=O)c2c1 | 170 |  |  |
| CNCCc1cn(C2=C(c3c[nH]c4ccc(C(=O)OC)cc34)C(=O)NC2=O)c2ccccc12 | 21 |  |  |
| CNCCc1cn(C2=C(c3c[nH]c4ccccc34)C(=O)NC2=O)c2ccccc12 | 150 |  |  |
| CNCCc1cn(C2=C(c3c[nH]c4ccc(Cl)cc34)C(=O)NC2=O)c2ccccc12 | 13 |  |  |
| NCCc1cn(C2=C(c3c[nH]c4ccc(C(F)(F)F)cc34)C(=O)NC2=O)c2ccccc12 | 32 |  |  |
| NCCc1cn(C2=C(c3c[nH]c4ccc(F)cc34)C(=O)NC2=O)c2ccccc12 | 38 |  |  |
| CCc1ccc2[nH]cc(C3=C(n4cc(CCNC)c5ccccc54)C(=O)NC3=O)c2c1 | 110 |  |  |
| NCCc1cn(C2=C(c3c[nH]c4ccccc34)C(=O)NC2=O)c2ccccc12 | 110 |  |  |
| NCCCn1cc(C2=C(n3ccc4ccccc43)C(=O)NC2=O)c2ccccc21 | 4560 |  |  |
